The target of the experiment is T1, human 4lg B7-H3 (Homo sapiens, UniProt Q5ZPR3).
T1 sequence (Q5ZPR3 29-534): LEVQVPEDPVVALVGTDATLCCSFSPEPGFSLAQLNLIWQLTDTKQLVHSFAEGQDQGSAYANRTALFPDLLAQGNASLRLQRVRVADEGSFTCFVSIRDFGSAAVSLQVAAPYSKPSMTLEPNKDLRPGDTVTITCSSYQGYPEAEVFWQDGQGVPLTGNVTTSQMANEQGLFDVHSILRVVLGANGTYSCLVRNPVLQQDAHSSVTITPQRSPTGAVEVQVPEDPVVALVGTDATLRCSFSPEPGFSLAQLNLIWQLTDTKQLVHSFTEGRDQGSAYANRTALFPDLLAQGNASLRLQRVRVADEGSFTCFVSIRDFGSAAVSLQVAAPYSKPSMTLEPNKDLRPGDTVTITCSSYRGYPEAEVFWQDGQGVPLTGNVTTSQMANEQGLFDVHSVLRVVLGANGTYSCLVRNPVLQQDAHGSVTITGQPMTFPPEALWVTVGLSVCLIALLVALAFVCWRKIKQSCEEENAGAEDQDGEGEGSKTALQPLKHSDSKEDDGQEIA
Nature of the experiment: Affinity determination by surface plasmon resonance (SPR) to 4Ig B7-H3. Conditions: 4Ig B7-H3. A general note: SPR reads the build-up and loss of mass on a sensor chip optically.

The mark [1] stands for this setting: SPR KD—25° C., 25° C. flow cell temperature.
[2] abbreviates: SPR KD—37° C., 37° C. flow cell temperature.

By Kd is commonly meant the equilibrium constant for the complex coming apart. Low readings indicate a tighter complex, high ones a looser complex.

Positions of bridges follow the written chain, without caps; N, C: chain ends. Non-standard residues stand in square brackets, D forms with d. Residues, ends and D or L forms follow the SMILES beside them. *: point of attachment. DOTA = O=C(O)CN1CCN(CC(=O)O)CCN(CC(=O)*)CCN(CC(=O)O)CC1; Trp(5-F) = N[C@@H](Cc1c[nH]c2ccc(F)cc12)C(=O)O; 1Nal = N[C@@H](Cc1cccc2ccccc12)C(=O)O; Ala(4-THP) = N[C@@H](CC1CCOCC1)C(=O)O; Phe(2-F) = N[C@@H](Cc1ccccc1F)C(=O)O; Val(3-OH) = CC(C)(O)[C@H](N)C(=O)O; Chg = N[C@H](C(=O)O)C1CCCCC1; Tle = CC(C)(C)[C@H](N)C(=O)O; hLeu = CC(C)CC[C@H](N)C(=O)O; Nle = CCCC[C@H](N)C(=O)O

Molecule `CC(=O)N[C@@H](CCC(C)C)C(=O)N[C@@H](Cc1ccc(O)cc1)C(=O)N[C@H]1CSSC[C@@H](C(=O)N[C@@H](Cc2c[nH]c3ccc(F)cc23)C(=O)N[C@@H](Cc2ccccc2F)C(=O)N[C@H](C(=O)N[C@H](CCCCNC(=O)CN2CCN(CC(=O)O)CCN(CC(=O)O)CCN(CC(=O)O)CC2)C(N)=O)[C@@H](C)O)NC(=O)[C@H](Cc2ccc(O)cc2)NC(=O)[C@H](C(C)C)NC(=O)[C@H](CC(=O)O)NC(=O)[C@H](Cc2ccc(O)cc2)NC(=O)[C@H](CCCCN)NC(=O)CNC(=O)[C@H](C(C)C)NC1=O` [compound 164, Ac-hLeu-Y-C-V-G-K-Y-D-V-Y-C-5FW-2FPhe-Thr-dLys(DOTA)-CONH2] (Ac-[hLeu]YCVGKYDVYC[Trp(5-F)][Phe(2-F)]T[dK](DOTA)-NH2; disulfide 3-11) had a Kd under setting [1] below 1 nM.
For the molecule `CC(=O)N[C@@H](CCC(C)C)C(=O)N[C@@H](Cc1ccc(O)cc1)C(=O)N[C@H]1CSSC[C@@H](C(=O)N[C@@H](Cc2c[nH]c3ccc(F)cc23)C(=O)N[C@@H](Cc2ccccc2)C(=O)N[C@H](C(=O)N[C@H](CCCCNC(=O)CN2CCN(CC(=O)O)CCN(CC(=O)O)CCN(CC(=O)O)CC2)C(=O)O)C(C)(C)O)NC(=O)[C@H](Cc2ccc(O)cc2)NC(=O)[C@H](C(C)C)NC(=O)[C@H](CC(=O)O)NC(=O)[C@H](CC2CCOCC2)NC(=O)[C@H](CCCCN)NC(=O)CNC(=O)[C@H]([C@@H](C)O)NC1=O` [compound 370, Ac-hLeu-Y-C-Thr-G-K-ThpA-D-V-Y-C-5FW-F-hydroxyVal-dLys(DOTA)-COOH] (Ac-[hLeu]YCTGK[Ala(4-THP)]DVYC[Trp(5-F)]F[Val(3-OH)][dK](DOTA)-OH; disulfide 3-11), the equilibrium dissociation constant (Kd) under setting [2] fell in the range of 1 to 10 nM.
For `CC(=O)N[C@@H](CCC(C)C)C(=O)N[C@@H](Cc1ccc(O)cc1)C(=O)N[C@H]1CSSC[C@@H](C(=O)N[C@@H](Cc2cccc3ccccc23)C(=O)N[C@@H](Cc2ccccc2)C(=O)N[C@H](C(=O)N[C@H](CCCCNC(=O)CN2CCN(CC(=O)O)CCN(CC(=O)O)CCN(CC(=O)O)CC2)C(N)=O)[C@@H](C)O)NC(=O)[C@H](Cc2ccc(O)cc2)NC(=O)[C@H](C2CCCCC2)NC(=O)[C@H](CC(=O)O)NC(=O)[C@H](Cc2ccc(O)cc2)NC(=O)[C@H](CCCCN)NC(=O)CNC(=O)[C@H](C(C)(C)C)NC1=O` [compound 180, Ac-hLeu-Y-C-Tbg-G-K-Y-D-Chg-Y-C-1Nal-F-Thr-dLys(DOTA)-CONH2] (Ac-[hLeu]YC[Tle]GKYD[Chg]YC[1Nal]FT[dK](DOTA)-NH2; disulfide 3-11), under setting [1], the Kd lay within 1 to 10 nM.
Regarding `CCCC[C@H](NC(=O)[C@H](Cc1c[nH]c2ccc(F)cc12)NC(=O)[C@@H]1CSSC[C@H](NC(=O)[C@H](Cc2ccc(O)cc2)NC(=O)[C@H](CCC(C)C)NC(C)=O)C(=O)N[C@@H](C(C)(C)C)C(=O)NCC(=O)N[C@@H](CCCCN)C(=O)N[C@@H](CC2CCOCC2)C(=O)N[C@@H](CC(=O)O)C(=O)N[C@@H](C(C)C)C(=O)N[C@@H](Cc2ccc(O)cc2)C(=O)N1)C(=O)N[C@H](C(=O)N[C@H](CCCCNC(=O)CN1CCN(CC(=O)O)CCN(CC(=O)O)CCN(CC(=O)O)CC1)C(=O)O)C(C)(C)O` [compound 327, Ac-hLeu-Y-C-Tbg-G-K-ThpA-D-V-Y-C-5FW-Nle-hydroxyVal-dLys(DOTA)-COOH] (Ac-[hLeu]YC[Tle]GK[Ala(4-THP)]DVYC[Trp(5-F)][Nle][Val(3-OH)][dK](DOTA)-OH; disulfide 3-11), the Kd under setting [2] lay within 10 to 100 nM.
In turn, `CC(=O)N[C@@H](CCC(C)C)C(=O)N[C@@H](Cc1ccc(O)cc1)C(=O)N[C@H]1CSSC[C@@H](C(=O)N[C@@H](Cc2c[nH]c3ccc(F)cc23)C(=O)N[C@@H](Cc2ccccc2)C(=O)N[C@H](C(=O)N[C@H](CCC(=O)O)C(N)=O)C(C)(C)O)NC(=O)[C@H](Cc2ccc(O)cc2)NC(=O)[C@H](C(C)C)NC(=O)[C@H](CC(=O)O)NC(=O)[C@H](CC2CCOCC2)NC(=O)[C@H](CCCCNC(=O)CN2CCN(CC(=O)O)CCN(CC(=O)O)CCN(CC(=O)O)CC2)NC(=O)CNC(=O)[C@H](C(C)(C)C)NC1=O` [compound 423, Ac-hLeu-Y-C-Tbg-G-Lys(DOTA)-ThpA-D-V-Y-C-5FW-F-hydroxyVal-dGlu-CONH2] (Ac-[hLeu]YC[Tle]GK(DOTA)[Ala(4-THP)]DVYC[Trp(5-F)]F[Val(3-OH)][dE]-NH2; disulfide 3-11) came in with a Kd under setting [2] of 1 to 10 nM.
